# Source: patent US10457662B2, “Substituted amides for treating and preventing cancer” (The Regents of the University of Michigan, priority 2015, dated 2019)
# pIC50: −log10 of the molar value.
# Experiments:
# MiaPaCa-2 cells [1] = test: Bru-seq analysis of RNA synthesis in MiaPaCa-2; assay type: cell-based; details: 1 μM
# Protocol: In order to understand the mechanism of action for QN523 in pancreatic cancer, Bru-seq was performed to evaluate global changes in gene synthesis after QN523 treatment. […] During this time, the cells begin initiating cascade of pharmacological events unique to these compounds. However, cell death pathways will be initiated at later time points well beyond 24 hrs. Therefore, the Bru-seq experiments were performed after 24 hrs drug (1 μM) exposure. Using RPKM>0.5, gene size >300 bp as the cut off values to eliminate background noises, there were totally 8521 expressed genes in the QN523 and DMSO control samples out of around 22,000 genes in the reference genome.
# Bru-seq data from QN523 treatment (1 uM, 24 h) and vehicle controls in MiaPaCa-2 was processed by filtering for genes with RPKM>0.5, gene size >300 bp. Expressed genes were then preranked according to fold change comparing to control and subjected to analysis.
# Hep3B = test: MTT assay, Hep3B; assay type: cell-based; details: Homo sapiens, HCC cell line
# Protocol: (§1) In order to understand its potential selectivity for different types of cancer and choose the best model for further characterization, QN523 was tested in a panel of 12 cancer cell lines with various genetic and pathological backgrounds (Table 2). […] Because of remarkable potency of QN-523 in pancreatic cancer in-depth preclinical studies in this disease model were performed.
# HCT116 p53+/+ = test: MTT assay, HCT116 p53+/+; assay type: cell-based; details: Homo sapiens, HCT-116, MTT assay; colorectal cancer cell line
# Protocol: as §1
# SNU398 = test: MTT assay, SNU398; assay type: cell-based; details: Homo sapiens, SNU-398, HCC cell line
# Protocol: as §1
# MiaPaCa-2 cells [2] = test: Ingenuity Pathway Analysis (IPA) of Bru-seq gene lists; details: 1 μM, 24 h
# Text: Top 20 canonical pathways regulated by QN523. Histogram represents percentage of genes regulated in the pathway; numbers on the histogram are total numbers of genes in the specific pathway. […] Orange line represents statistical significance in regulation of the indicated pathway.
# SNU387 = test: MTT assay, SNU387; assay type: cell-based; details: Homo sapiens, SNU-387, HCC cell line
# Protocol: as §1
# MiaPaCa-2 = test: Colony formation assay, MiaPaCa-2; assay type: cell-based; details: 0.1 μM; 24 h treatment
# Text: A) QN523 inhibits colony formation in PDAC cell lines. […] Data points represent Mean±SD from three independent experiments.
# The cytotoxicity of QN523 was further evaluated in three pancreatic cancer cell lines using colony formation assay. Using numbers and sizes of colonies as the experimental readout, this long-term assay estimates both anti-proliferative and cytotoxic effect.
# GRP78, CHOP, ATF3, GDF15 = test: Western blotting of stress responsive proteins in MiaPaCa-2; assay type: cell-based; details: 72 h, western blotting
# Protocol: FIG. 11: QN523 induces protein expression of stress markers dose-dependently.
# This example describes the validation of biomarkers GDF15, ATF3, DDIT3, HSPA5, WIPI1, GABARAPL1 and MAP1LC3B in pancreatic cancer cell lines. To validate the findings from bioinformatics analysis basing on Bru-seq experiments, the proposed biomarkers were further tested in pancreatic cancer cell lines. […] However, the potency of Sulindac is much lower than that of QN523, with IC50 of 300 μM in MiaPaCa-2.
# In addition, primary antibodies for LC3B, survivin, cyclin D1, Stat3 and phosphorylated Stat3 (Y705) are from Cell Signaling Technology.
# Jurkat = test: MTT assay, Jurkat; assay type: cell-based; details: Homo sapiens, leukemia cell line
# Protocol: as §1
compound,measurement,setting,value
"O=C(Nc1cccc2cccnc12)c1cnccn1 [QN523, Pyrazine-2-carboxylic acid quinolin-8-ylamide]",number of genes downregulated,"MiaPaCa-2 cells [1]; 24 h, of 8521 expressed genes",123 genes
same,number of genes upregulated more than two fold,"MiaPaCa-2 cells [1]; 24 h, of 8521 expressed genes",275 genes
same,Fold Change ATF3,"MiaPaCa-2 cells [1]; RNA synthesis, 24 h vs control",22.1 fold
same,Fold Change AURKAIP1,"MiaPaCa-2 cells [1]; RNA synthesis, 24 h vs control",−2.3 fold
same,Fold Change C9orf140,"MiaPaCa-2 cells [1]; RNA synthesis, 24 h vs control",−2.5 fold
same,Fold Change C17orf62,"MiaPaCa-2 cells [1]; RNA synthesis, 24 h vs control",−2.5 fold
same,Fold Change C19orf60,"MiaPaCa-2 cells [1]; RNA synthesis, 24 h vs control",−2.3 fold
same,Fold Change C19orf76,"MiaPaCa-2 cells [1]; RNA synthesis, 24 h vs control",−2.3 fold
same,Fold Change CCDC85C,"MiaPaCa-2 cells [1]; RNA synthesis, 24 h vs control",−2.4 fold
same,Fold Change CCNG2,"MiaPaCa-2 cells [1]; RNA synthesis, 24 h vs control",6.6 fold
same,Fold Change CD55,"MiaPaCa-2 cells [1]; RNA synthesis, 24 h vs control",6.3 fold
same,Fold Change CXCL3,"MiaPaCa-2 cells [1]; RNA synthesis, 24 h vs control",11.1 fold
same,Fold Change DDIT3,"MiaPaCa-2 cells [1]; RNA synthesis, 24 h vs control",10.7 fold
same,Fold Change DNAJB9,"MiaPaCa-2 cells [1]; RNA synthesis, 24 h vs control",7.8 fold
same,Fold Change FAM129A,"MiaPaCa-2 cells [1]; RNA synthesis, 24 h vs control",16.0 fold
same,Fold Change FASN,"MiaPaCa-2 cells [1]; RNA synthesis, 24 h vs control",−2.4 fold
same,Fold Change GABARAPL1,"MiaPaCa-2 cells [1]; RNA synthesis, 24 h vs control",8.2 fold
same,Fold Change HERPUD1,"MiaPaCa-2 cells [1]; RNA synthesis, 24 h vs control",10.0 fold
same,Fold Change HMOX1,"MiaPaCa-2 cells [1]; RNA synthesis, 24 h vs control",13.6 fold
same,Fold Change HPDL,"MiaPaCa-2 cells [1]; RNA synthesis, 24 h vs control",−2.4 fold
same,Fold Change HSPA5,"MiaPaCa-2 cells [1]; RNA synthesis, 24 h vs control",7.9 fold
same,Fold Change LOC344887,"MiaPaCa-2 cells [1]; RNA synthesis, 24 h vs control",16.7 fold
same,Fold Change MAP1LC3B,"MiaPaCa-2 cells [1]; RNA synthesis, 24 h vs control",6.9 fold
same,Fold Change MXD3,"MiaPaCa-2 cells [1]; RNA synthesis, 24 h vs control",−2.3 fold
same,Fold Change NAT14,"MiaPaCa-2 cells [1]; RNA synthesis, 24 h vs control",−2.4 fold
same,Fold Change OSGIN1,"MiaPaCa-2 cells [1]; RNA synthesis, 24 h vs control",8.0 fold
same,Fold Change PRKCDBP,"MiaPaCa-2 cells [1]; RNA synthesis, 24 h vs control",−2.3 fold
same,Fold Change RANGRF,"MiaPaCa-2 cells [1]; RNA synthesis, 24 h vs control",−2.3 fold
same,Fold Change RNASEH2C,"MiaPaCa-2 cells [1]; RNA synthesis, 24 h vs control",−2.3 fold
same,Fold Change RPL23AP32,"MiaPaCa-2 cells [1]; RNA synthesis, 24 h vs control",−2.3 fold
same,Fold Change SAT1,"MiaPaCa-2 cells [1]; RNA synthesis, 24 h vs control",7.2 fold
same,Fold Change SCARNA10,"MiaPaCa-2 cells [1]; RNA synthesis, 24 h vs control",−2.4 fold
same,Fold Change SEMA6B,"MiaPaCa-2 cells [1]; RNA synthesis, 24 h vs control",−2.4 fold
same,Fold Change SLC37A4,"MiaPaCa-2 cells [1]; RNA synthesis, 24 h vs control",−2.3 fold
same,Fold Change SLFN5,"MiaPaCa-2 cells [1]; RNA synthesis, 24 h vs control",10.1 fold
same,Fold Change TERC,"MiaPaCa-2 cells [1]; RNA synthesis, 24 h vs control",−2.4 fold
same,Fold Change THAP11,"MiaPaCa-2 cells [1]; RNA synthesis, 24 h vs control",−2.5 fold
same,Fold Change TRIB3,"MiaPaCa-2 cells [1]; RNA synthesis, 24 h vs control",14.3 fold
same,Fold Change UPP1,"MiaPaCa-2 cells [1]; RNA synthesis, 24 h vs control",18.4 fold
same,Fold Change WIPI1,"MiaPaCa-2 cells [1]; RNA synthesis, 24 h vs control",15.3 fold
same,Fold Change ZDHHC12,"MiaPaCa-2 cells [1]; RNA synthesis, 24 h vs control",−2.4 fold
same,pIC50,Hep3B,6.68
same,pIC50,HCT116 p53+/+,~7.00
same,pIC50,SNU398,5.72
same,"genes up-regulated in unfolded protein response, ER stress pathway and circadian rhythm signaling",MiaPaCa-2 cells [2],about 25%
same,pIC50,SNU387,5.24
same,suppression of MiaPaCa-2 colonies,MiaPaCa-2,complete suppression of MiaPaCa-2 colonies
same,"protein levels of stress responsive markers HSPA5, DDIT3, ATF3 and GDF15","GRP78, CHOP, ATF3, GDF15",dose dependent upregulation
same,pIC50,Jurkat,~7.00
